Data published in patent US20160264536A1, “HETEROCYCLIC COMPOUND” (Takeda Pharmaceutical Company Limited, priority 2013, published 2016).

Molecular target: T1, human PDE2A3 enzyme (Homo sapiens, UniProt O00408)
T1 construct: Human PDE2A3 full-length gene was transduced into Sf9; His-tag; made in house; host or cells: Sf9 insect cells
Experiment: PDE enzyme inhibitory assay (SPA, [3H]cGMP substrate)
Assay type: biochemical
Conditions: compound 1 μM, substrate [3H]cGMP 77 nM, read-out: inhibitory rate (%) (1 μM)
Experimental: PDE Enzyme Inhibitory Assay
Human PDE2A3 full-length gene was transduced into Sf9, and human PDE2A3 enzyme was purified by His-tag affinity column and gel filtration. The enzyme was stored at −70° C. until use. PDE activity was measured by using a SPA (Scintillation Proximity Assay) (GE Healthcare). To evaluate the inhibitory activity of the compound, 10 μl of serial diluted compounds were reacted with 20 μl of PDE enzyme in assay buffer (50 mM HEPES-NaOH, 8.3 mM MgCl2, 1.7 mM EGTA, 0.1% BSA (pH 7.4)) for 30 min at room temperature. Final concentration of DMSO in the reaction solution was 1%. Compounds were tested in duplicate in 96-well half-area plates (Corning) or 384-well OptiPlate (PerkinElmer). To start the reaction, 10 μl of substrate [^3H]cGMP (final concentration 77 nM, PerkinElmer) was added to a total volume of 40 μl. After reaction for 60 min at room temperature, 20 μl of 20 mg/mL yttrium SPA beads containing zinc sulfate was added to terminate the reaction. After being settled for further 1 hour, the assay plates were counted in a scintillation counter (PerkinElmer) to allow calculation of inhibition rate. Inhibition rate was calculated on the basis of 0% control wells with enzyme and DMSO, and 100% control wells without enzyme.

T1 sequence (O00408 whole entry): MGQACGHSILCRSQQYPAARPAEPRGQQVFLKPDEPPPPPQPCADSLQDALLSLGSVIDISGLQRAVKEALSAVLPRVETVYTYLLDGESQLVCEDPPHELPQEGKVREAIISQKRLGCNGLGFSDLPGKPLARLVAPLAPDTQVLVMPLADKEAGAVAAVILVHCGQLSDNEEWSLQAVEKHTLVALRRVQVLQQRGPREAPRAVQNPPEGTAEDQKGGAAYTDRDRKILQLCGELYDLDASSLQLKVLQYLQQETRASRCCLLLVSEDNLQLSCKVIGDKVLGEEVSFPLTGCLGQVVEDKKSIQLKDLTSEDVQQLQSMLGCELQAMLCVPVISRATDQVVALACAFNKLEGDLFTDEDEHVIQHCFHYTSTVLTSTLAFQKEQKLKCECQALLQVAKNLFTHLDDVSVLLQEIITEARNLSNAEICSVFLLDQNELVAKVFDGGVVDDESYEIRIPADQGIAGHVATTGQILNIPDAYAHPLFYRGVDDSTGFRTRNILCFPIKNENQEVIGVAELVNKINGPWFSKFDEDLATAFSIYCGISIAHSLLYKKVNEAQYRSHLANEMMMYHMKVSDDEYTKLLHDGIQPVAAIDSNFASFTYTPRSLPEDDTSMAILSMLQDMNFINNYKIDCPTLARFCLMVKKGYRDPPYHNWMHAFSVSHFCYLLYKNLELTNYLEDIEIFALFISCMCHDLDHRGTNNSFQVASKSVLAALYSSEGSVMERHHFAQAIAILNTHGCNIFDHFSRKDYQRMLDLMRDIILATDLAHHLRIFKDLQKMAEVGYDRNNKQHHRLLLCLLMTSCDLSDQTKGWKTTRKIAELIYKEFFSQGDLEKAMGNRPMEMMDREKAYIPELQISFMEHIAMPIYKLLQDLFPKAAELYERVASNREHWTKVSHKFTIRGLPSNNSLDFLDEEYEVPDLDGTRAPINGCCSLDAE

| inhibition at 1 µM [%] | SMILES |
| --- | --- |
| 103 | COC[C@@H](NC(=O)c1cc(=O)[nH]c(-c2ccsc2)n1)c1ccc(OC(F)(F)F)c(F)c1 [Example 120, N-((1S)-1-(3-fluoro-4-(trifluoromethoxy)phenyl)-2-methoxyethyl)-6-oxo-2-(3-thienyl)-1,6-dihydropyrimidine-4-carboxamide] |
| 94 | CC(C)(O)[C@@H](NC(=O)c1cc(=O)[nH]c(C2CC2)n1)c1ccc(OC(F)(F)F)c(F)c1 [Example 96, 2-cyclopropyl-N-((1S)-1-(3-fluoro-4-(trifluoromethoxy)phenyl)-2-hydroxy-2-methylpropyl)-6-oxo-1,6-dihydropyrimidine-4-carboxamide] |
| 98 | COC[C@@H](NC(=O)c1cc(=O)[nH]c(-c2ccccc2)n1)c1ccc(OC(F)(F)F)c(F)c1 [Example 87, N-((1S)-1-(3-fluoro-4-(trifluoromethoxy)phenyl)-2-methoxyethyl)-6-oxo-2-phenyl-1,6-dihydropyrimidine-4-carboxamide] |
| 100 | COC[C@@H](NC(=O)c1cc(=O)[nH]c(C2(C)CC2)n1)c1ccc(OC(F)(F)F)cc1 [Example 153, N-((1S)-2-methoxy-1-(4-(trifluoromethoxy)phenyl)ethyl)-2-(1-methylcyclopropyl)-6-oxo-1,6-dihydropyrimidine-4-carboxamide] |
| 95 | COC[C@@H](NC(=O)c1cc(=O)[nH]c(-c2ccco2)n1)c1ccc(OC(F)(F)F)c(F)c1 [Example 121, N-((1S)-1-(3-fluoro-4-(trifluoromethoxy)phenyl)-2-methoxyethyl)-2-(2-furyl)-6-oxo-1,6-dihydropyrimidine-4-carboxamide] |
| 108 | COC[C@@H](NC(=O)c1cc(=O)[nH]c(C2(C)CC2)n1)c1ccc(OC(F)(F)F)c(F)c1 [Example 103, N-((1S)-1-(3-fluoro-4-(trifluoromethoxy)phenyl)-2-methoxyethyl)-2-(1-methylcyclopropyl)-6-oxo-1,6-dihydropyrimidine-4-carboxamide] |
| 97 | Cn1cc(-c2cncc(C(=O)N[C@@H](c3ccc(OC(F)(F)F)c(F)c3)C(C)(C)O)n2)cn1 [Example 158, N-((1S)-1-(3-fluoro-4-(trifluoromethoxy)phenyl)-2-hydroxy-2-methylpropyl)-6-(1-methyl-1H-pyrazol-4-yl)pyrazine-2-carboxamide] |
| 97 | COC[C@@H](NC(=O)c1cc(=O)[nH]c(N2CC[C@H](OC)C2)n1)c1ccc(OC(F)(F)F)cc1 [Example 45, 2-((3S)-3-methoxypyrrolidin-1-yl)-N-((1S)-2-methoxy-1-(4-(trifluoromethoxy)phenyl)ethyl)-6-oxo-1,6-dihydropyrimidine-4-carboxamide] |
| 94 | CO[C@H]1CCN(c2cncc(C(=O)N[C@@H](c3ccc(OC(F)(F)F)c(F)c3)C(C)(C)O)n2)C1 [Example 163, N-((1S)-1-(3-fluoro-4-(trifluoromethoxy)phenyl)-2-hydroxy-2-methylpropyl)-6-((3S)-3-methoxypyrrolidin-1-yl)pyrazine-2-carboxamide] |
| 97 | COC[C@@H](NC(=O)c1cc(=O)[nH]c(-c2cccs2)n1)c1ccc(OC(F)(F)F)c(F)c1 [Example 107, N-((1S)-1-(3-fluoro-4-(trifluoromethoxy)phenyl)-2-methoxyethyl)-6-oxo-2-(2-thienyl)-1,6-dihydropyrimidine-4-carboxamide] |
| 98 | COC[C@@H](NC(=O)c1cc(=O)[nH]c(N(C)C)n1)c1ccc(OC(F)(F)F)cc1 [Example 20, 2-(dimethylamino)-N-((1S)-2-methoxy-1-(4-(trifluoromethoxy)phenyl)ethyl)-6-oxo-1,6-dihydropyrimidine-4-carboxamide] |
| 94 | COC[C@@H](NC(=O)c1cc(=O)[nH]c(C(C)(C)C)n1)c1ccc(OC(F)(F)F)c(F)c1 [Example 80, 2-tert-butyl-N-((1S)-1-(3-fluoro-4-(trifluoromethoxy)phenyl)-2-methoxyethyl)-6-oxo-1,6-dihydropyrimidine-4-carboxamide] |
